# Data reported in ChEMBL document CHEMBL4354794, “Potential Anticancer Agents Characterized from Selected Tropical Plants” (J Nat Prod, 2019).
# Key:
# [1] = system: HT-29; test: Antiproliferative activity against human HT-29 cells assessed as reduction in cell viability; type: functional, cell-based
# [2] = system: HepG2; test: Antiproliferative activity against human HepG2 assessed as reduction in cell viability incubated for 48 hrs by AlamarBlue assay; type: functional, cell-based; conditions: HepG2, 48 h
# [3] = system: HT-29; test: Antiproliferative activity against human HT-29 cells assessed as reduction in cell viability after 3 days by SRB assay; type: functional, cell-based; conditions: HT-29, 72 h
# [4] = system: BGC-823; test: Antiproliferative activity against human BGC823 cells assessed as reduction in cell viability after 48 hrs by MTT assay; type: functional, cell-based; conditions: BGC-823, 48 h
# [5] = system: A549; test: Antiproliferative activity against human A549 cells assessed as reduction in cell viability after 48 hrs by MTT assay; type: functional, cell-based; conditions: A549, 48 h
# [6] = Antiproliferative activity against human KKU100 cells assessed as reduction in cell viability after 72 hrs by SRB assay; type: functional, cell-based; conditions: KKU100, 72 h
# [7] = system: HL-60; test: Antiproliferative activity against human HL60 cells assessed as reduction in cell viability after 3 days by trypan blue dye based hemocytometer counting method; type: functional; conditions: HL-60, 72 h
# [8] = system: NCI-H1650; test: Antiproliferative activity against human NCI-H1650 cells assessed as reduction in cell viability after 72 hrs by CellTiter-Glo assay; type: functional, cell-based; conditions: NCI-H1650, 72 h
# [9] = system: SNB-19; test: Antiproliferative activity against human SNB19 cells; type: functional, cell-based
# [10] = system: MCF7; test: Antiproliferative activity against human MCF7 assessed as reduction in cell viability incubated for 48 hrs by AlamarBlue assay; type: functional, cell-based; conditions: MCF7, 48 h
# [11] = biological target: Cruzipain (Trypanosoma cruzi, UniProt P25779); test: Inhibition of Trypanosoma cruzi cruzain (unknown origin) using Z-FR-MCA as substrate by spectrofluorimetric method
# Cruzipain, sequence (P25779 whole entry): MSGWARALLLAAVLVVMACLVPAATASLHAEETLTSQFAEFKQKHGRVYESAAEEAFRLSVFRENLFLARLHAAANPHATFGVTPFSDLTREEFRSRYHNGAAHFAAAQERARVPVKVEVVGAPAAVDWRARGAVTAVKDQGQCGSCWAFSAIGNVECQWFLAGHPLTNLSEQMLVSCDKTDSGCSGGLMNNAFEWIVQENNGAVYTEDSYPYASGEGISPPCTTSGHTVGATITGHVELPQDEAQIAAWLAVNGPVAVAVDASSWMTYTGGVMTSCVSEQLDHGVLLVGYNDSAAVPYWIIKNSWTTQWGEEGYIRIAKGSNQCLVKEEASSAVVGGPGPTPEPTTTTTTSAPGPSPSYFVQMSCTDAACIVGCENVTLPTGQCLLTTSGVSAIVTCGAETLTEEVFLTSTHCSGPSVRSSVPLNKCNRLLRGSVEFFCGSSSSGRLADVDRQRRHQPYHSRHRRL
# [12] = biological target: T1, Papain (Carica papaya, UniProt P00784); test: Inhibition of Papaya papain using Z-FR-MCA as substrate by spectrofluorimetric method
# T1 sequence (P00784 whole entry): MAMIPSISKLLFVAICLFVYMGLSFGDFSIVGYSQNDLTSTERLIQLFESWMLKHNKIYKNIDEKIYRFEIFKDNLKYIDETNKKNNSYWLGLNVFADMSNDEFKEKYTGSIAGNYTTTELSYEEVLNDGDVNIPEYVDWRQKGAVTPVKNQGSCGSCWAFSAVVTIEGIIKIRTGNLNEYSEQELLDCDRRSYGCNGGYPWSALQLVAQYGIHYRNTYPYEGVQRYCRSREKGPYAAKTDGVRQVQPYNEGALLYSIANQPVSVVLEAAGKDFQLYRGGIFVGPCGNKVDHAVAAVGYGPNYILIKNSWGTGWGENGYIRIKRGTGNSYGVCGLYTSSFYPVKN
# [13] = biological target: Trypsin (Homo sapiens, UniProt P07477+P07478+P35030); test: Inhibition of trypsin (unknown origin) using Z-FR-MCA as substrate by spectrofluorimetric method; type: protein assay
# [14] = system: P388; test: Antiproliferative activity against mouse P388 cells assessed as reduction in cell viability; type: functional, cell-based
smiles,measurement,setting,value
C=C(C)C(=O)O[C@H]1C[C@@]2(C)OC(=CC2=O)C(=C)[C@H](O)[C@H]2OC(=O)C(=C)[C@@H]21,IC50,[1],0.28 µM
C=C1C(=O)O[C@@H]2C3O[C@]3(C)CC/C=C(\C)CC[C@@H]12 (some centres not stated),IC50,[2],> 10 µM
C=C1C(=O)O[C@@H]2/C=C(/C)C3=CC(=O)[C@@](C)(C[C@H](OC(=O)C(C)C)[C@@H]12)O3,IC50,[1],0.58 µM
CC(C)=CCc1c2c(c(O)c3c1O[C@]14C(=C[C@H]5C[C@@H]1C(C)(C)O[C@@]4(C/C=C(/C)C(=O)O)C5=O)C3=O)C=CC(C)(C)O2,IC50,[3],0.36 µM
COCOc1cc(O)c2c(c1)OC13C(=CC4CC1C(C)(C)OC3(CC=C(C)C)C4=O)C2=O (configuration not stated),IC50,[4],3.2 µM
same,IC50,[5],3.3 µM
C=C(C)C(=O)O[C@H]1C[C@@]2(C)OC(=CC2=O)[C@H](C)C(CC(=C)C(=O)O[C@H]2C[C@@]3(C)OC(=CC3=O)/C(C)=C\[C@H]3OC(=O)C(=C)[C@H]23)[C@H]2OC(=O)C(=C)[C@H]12 (some centres not stated),IC50,[1],0.15 µM
CCCCCCCCCCCCCCCC(=O)OC[C@H]1O[C@@H](O[C@H]2CC[C@@]3(C)C(=CC[C@H]4[C@@H]5CC[C@H]([C@H](C)CC[C@@H](CC)C(C)C)[C@@]5(C)CC[C@@H]43)C2)[C@H](O)[C@@H](O)[C@@H]1O,IC50,[3],> 10 µM
CC(C)=CCC12OC(C)(C)C3CC(C=C4C(=O)c5c(O)cc(O)cc5OC431)C2=O (configuration not stated),IC50,[4],5.9 µM
same,IC50,[5],4.1 µM
COCOc1cc(O)c2c(c1)OC13C(=CC4CC1C(C)(C)OC3(C/C=C(\C)CO)C4=O)C2=O (configuration not stated),IC50,[4],3.8 µM
same,IC50,[5],2.5 µM
CC(C)=CCc1c(O)cc(O)c2c1O[C@]13C(=C[C@H]4C[C@@H]1C(C)(C)O[C@@]3(CC=C(C)C)C4=O)C2=O,IC50,[6],3.5 µM
C=C(C)C(O)Cc1c2c(c(O)c3c1O[C@]14C(=C[C@H]5C[C@@H]1C(C)(C)O[C@@]4(C/C=C(\C)C(=O)O)C5=O)C3=O)C=CC(C)(C)O2 (some centres not stated),IC50,[3],2.6 µM
CO[C@@H]1[C@@H]2C[C@H]3C(C)(C)O[C@@](C/C=C(/C)C(=O)O)(C2=O)[C@]32Oc3c(CC=C(C)C)c4c(c(O)c3C(=O)[C@H]12)C=C[C@@](C)(CCC=C(C)C)O4,IC50,[7],0.83 µM
CC(C)=CCC[C@@]1(C)C=Cc2c(O)c3c(c(CCC(C)(C)O)c2O1)O[C@]12C(=C[C@H]4C[C@@H]1C(C)(C)O[C@@]2(C/C=C(/C)C(=O)O)C4=O)C3=O,IC50,[8],0.95 µM
C=C1C(=O)O[C@@H]2C/C(C)=C\CC(=O)[C@](C)(OC(C)=O)C[C@H](OC(=O)/C(C)=C\C)[C@@H]12,IC50,[1],4 µM
COCOc1cc(O)c2c(c1)OC13C(=CC4CC1C(C)(C)OC3(CC1OC1(C)C)C4=O)C2=O (configuration not stated),IC50,[4],0.31 µM
same,IC50,[5],2.7 µM
CC(C)=CCC[C@@]1(C)C=Cc2c(O)c3c(c(C/C=C(\C)CO)c2O1)O[C@]12C(=C[C@H]4C[C@@H]1C(C)(C)O[C@@]2(C/C=C(/C)C(=O)O)C4=O)C3=O,IC50,[8],0.62 µM
CC(C)=CCC/C(C)=C/Cc1c(O)c(CC=C(C)C)c2c(c1O)C(=O)C1=C[C@@H]3C[C@H]4C(C)(C)O[C@@](C/C=C(\C)C=O)(C3=O)[C@@]14O2,IC50,[8],0.97 µM
C=C(C)[C@@]1(O)O[C@H]2C[C@@]3(C)OC(=CC3=O)/C(C)=C\[C@H]3OC(=O)[C@@]1(C)[C@@H]23,IC50,[9],100 µM
same,IC50,[1],> 10 µM
C=C1C(=O)O[C@@H]2/C=C(/C)C3=CC(=O)[C@@](C)(C[C@H](OC(=O)/C(C)=C\C)[C@@H]12)O3,IC50,[9],13.8 µM
same,IC50,[1],1.4 µM
COCOc1cc(O)c2c(c1)OC13C(=CC4CC1C(C)(C)OC3(C/C=C(\C)CBr)C4=O)C2=O (configuration not stated),IC50,[4],1.6 µM
same,IC50,[5],0.96 µM
COCOc1cc(O)c2c(c1)OC13C(=CC4CC1C(C)(C)OC3(C/C=C(\C)C=O)C4=O)C2=O (configuration not stated),IC50,[4],5 µM
same,IC50,[5],1 µM
CC(C)=CCC/C(C)=C/Cc1c(O)c(CC=C(C)C)c2c(c1O)C(=O)C1=C[C@@H]3C[C@H]4C(C)(C)O[C@@](CC=C(C)C)(C3=O)[C@@]14O2,IC50,[8],1.1 µM
CC(C)=CCc1c(O)c(CC=C(C)C)c2c(c1O)C(=O)C1=C[C@H]3C[C@@H]4C(C)(C)O[C@@](C/C=C(/C)C(=O)O)(C3=O)[C@@]14O2,IC50,[3],3.2 µM
C=C1C(=O)O[C@@H]2C[C@@H](C)[C@H](OC)CC(=O)[C@](C)(OC(C)=O)C[C@H](OC(=O)/C(C)=C\C)[C@@H]12,IC50,[1],1.4 µM
C/C1=C\CC[C@@]2(C)O[C@H]2[C@H]2OC(=O)[C@@H](CNc3ccn(C4OC(CO)[C@H](O)[C@@H]4O)c(=O)n3)[C@@H]2CC1 (some centres not stated),IC50,[10],5.2 µM
same,IC50,[2],0.24 µM
COCOc1cc2c(c(O)c1Br)C(=O)C1=CC3CC4C(C)(C)OC(C/C=C(\C)CO)(C3=O)C14O2 (configuration not stated),IC50,[4],2.2 µM
same,IC50,[5],0.56 µM
C/C1=C\CC[C@@]2(C)O[C@H]2[C@H]2OC(=O)[C@@H](CNC(Cc3ccc(N(CCCl)CCCl)cc3)C(=O)O)[C@@H]2CC1 (some centres not stated),IC50,[10],1.8 µM
same,IC50,[2],0.26 µM
CC(C)=CCc1c2c(c(O)c3c1O[C@]14C(=C[C@H]5C[C@@H]1C(C)(C)O[C@@]4(C/C=C(\C)C=O)C5=O)C3=O)C=CC(C)(C)O2,IC50,[6],3.3 µM
CO[C@H]1[C@H]2C(=O)c3c(O)c4c(c(CC=C(C)C)c3O[C@@]23[C@@H]2C[C@H]1C(=O)[C@]3(C/C=C(/C)C(=O)O)OC2(C)C)OC(C)(C)C=C4,IC50,[3],1.9 µM
C=C1C(=O)O[C@@H]2C[C@@H](C)C3=CC(=O)[C@@](C)(C[C@H](OC(=O)/C(C)=C\C)[C@@H]12)O3,IC50,[1],0.56 µM
C=C1C(=O)O[C@@H]2[C@@H](O)[C@@H](C)C3=CC(=O)[C@@](C)(C[C@H](OC(=O)/C(C)=C\C)[C@@H]12)O3,IC50,[1],6.6 µM
COCOc1cc(O)c2c(c1)OC13C(=CC4CC1C(C)(C)OC3(C[C@H](O)C(C)(C)O)C4=O)C2=O (some centres not stated),IC50,[4],0.86 µM
same,IC50,[5],1.7 µM
C=C(C)C(=O)O[C@H]1C[C@@]2(C)OC(=CC2=O)[C@H](C)[C@H](O)[C@H]2OC(=O)C(=C)[C@@H]21,IC50,[1],1.9 µM
CC(C)=CCC/C(C)=C/Cc1c(O)c(CC=C(C)C)c2c(c1O)C(=O)C1=C[C@@H]3C[C@H]4C(C)(C)O[C@@](C/C=C(\C)C(=O)O)(C3=O)[C@@]14O2,IC50,[8],1.4 µM
C=C1C(=O)O[C@@H]2C[C@@H](C)[C@H](OC)CC(=O)[C@](C)(O)C[C@H](OC(=O)/C(C)=C\C)[C@@H]12,IC50,[1],1 µM
COc1cc2c(O[C@@H]3OC[C@H](O)[C@H](O)[C@H]3OC)c3c(c(-c4ccc5c(c4)OCO5)c2cc1OC)C(=O)OC3,IC50,[3],0.019 µM
COc1ccc(C2Oc3cc(OC)cc(O)c3C(=O)C2c2c(OC)cc(O)c3c(=O)cc(-c4ccc(OC)c(OC)c4)oc23)cc1 (racemic),IC50,[11],235 µM
same,IC50,[12],15.4 µM
same,IC50,[13],1.6 µM
CCCC(=O)Oc1ccc(C2Oc3cc(OC(=O)CCC)cc(O)c3C(=O)C2c2c(OC(=O)CCC)cc(O)c3c(=O)cc(-c4ccc(OC(=O)CCC)c(OC(=O)CCC)c4)oc23)cc1 (racemic),IC50,[11],8.1 µM
same,IC50,[12],15.7 µM
same,IC50,[13],19.8 µM
CC(=O)Oc1ccc(C2Oc3cc(OC(C)=O)cc(O)c3C(=O)C2c2c(OC(C)=O)cc(O)c3c(=O)cc(-c4ccc(OC(C)=O)c(OC(C)=O)c4)oc23)cc1 (racemic),IC50,[11],537 µM
same,IC50,[12],0.6 µM
same,IC50,[13],21.1 µM
O=C1c2c(O)cc(O)cc2OC(c2ccc(O)cc2)C1c1c(O)cc(O)c2c(=O)cc(-c3ccc(O)c(O)c3)oc12 (racemic),IC50,[11],9.6 µM
same,IC50,[12],10.5 µM
same,IC50,[13],3.8 µM
"CC(C)=CCc1c2c(c(O)c3c1O[C@]14C(=C[C@H]5C[C@@H]1C(C)(C)O[C@@]4(C/C=C(/C)C(=O)O)C5=O)C3=O)CC(O)C(C)(C)O2 (single isomer, unassigned; (-))",IC50,[3],2.9 µM
CC(C)=CCc1c(-c2cc(O)c(O)cc2O)oc2c3c(cc(O)c2c1=O)OC(C)(C)C=C3 [ARTONIN E],IC50,[14],0.14 µM
